Reference: patent EP2119434A1, “Use of heterosidic flavonoid derivatives for therapy of stem cell cancers” (INSTITUT NATIONAL DE LA SANTE ET DE LA RECHERCHE MEDICALE …, priority 2008, dated 2009)

Each compound was assayed on U937 (assay: Adhesion and cytotoxic assay (CAM-DR protocol, fibronectin), cell viability). Conditions: in vitro, adherent U937 (not shown).
Assay type: cell-based
Text: Fresh AML cells were obtained from bone marrow of patients upon informed consent, using Ficoll-Hypaque density-gradient centrifugation. […] For in vitro experiments, blasts were resuspended in IMDM. All patients were diagnosed according to WHO classification at the Hematology Department of Toulouse University Hospital (France). Normal bone marrow CD34+ and CD34- hematopoietic cells were harvested from healthy volunteers upon informed consent and obtained after positive selection of CD34-expressing cells by the means of immunomagnetic separation column (Miltenyi Biotech, Bergisch Gladbach, Germany). Fresh blood samples were collected from healthy adult donors and PBMC (Peripheral Blood Mononuclear Cells) were prepared on a Ficoll-Paque density gradient by centrifugation (800 g, 30 min at room temperature).
Adhesion assays were performed in 96-well plates coated overnight at 4°C with 40 µg/mL of human fibronectin (Roche Molecular Biochemicals, Mannheim, Germany) in a final volume of 50 µL in PBS. Each well was blocked with 1% fatty acid-free BSA in PBS, 1 h at room temperature and washed with PBS before seeding the cells. Cells were diluted at 3x10^5/mL overnight and then were serum starved for 1 h at 1x10^6/mL, incubated or not with plant extract/fraction and purified alkaloid or flavonoid compounds. Control assays were treated with corresponding solvents (water, water/ethanol, DMSO) at a 1/100 dilution. Cells were then allowed to adhere on fibronectin (10^5 cells/well) for 1 h at 37°C or maintained in suspension. In some experiments, both cells in suspension and adherent were treated with 0.5 µM daunorubicin (DNR) (Laboratoire Roger Bellon, Neuilly-sur-Seine, France) for 1 h at 37°C. At the end of the incubation period, cells were washed and incubated in serum containing medium for 24 h at 37°C. Cell viability was then quantified by methyl thiazolyl tetrazolium (MTT) assay (Sigma) or by the Annexin V-FITC detection kit from BD PharMingen. Experiments were performed in triplicate and results were evaluated as the percentage of surviving cells compared to the control group.
Aqueous extracts were prepared from dried H. scoparia leaves and serial dilutions were assayed for cytotoxicity over leukemic cells either in suspension or in adhesion following CAM-DR protocol.

| Compound | specific proapoptotic effect on adherent U937 cells |
| --- | --- |
| NCCc1c[nH]c2ccccc12 [tryptamine] | none of these compounds displayed a specific proapoptotic effect |
| NCC(O)c1ccc(O)cc1 (stereo not shown) [norsynephrine] | none of these compounds displayed a specific proapoptotic effect |
| COc1cc(O)c2c(=O)c(O)c(-c3ccc(O)c(O)c3)oc2c1 [rhamnetin] | none of these compounds displayed a specific proapoptotic effect |
| N-methylisosalsoline | none of these compounds displayed a specific proapoptotic effect |
